From patent US20230108906A1, “SUBSTITUTED BICYCLIC AND TRICYCLIC UREAS AND AMIDES, ANALOGUES THEREOF, AND METHODS USING SAME” (Arbutus Biopharma Corporation, priority 2019, published 2023) come the findings set out here.

Structures are written as SMILES.

The subject of one test is HBV rcDNA in HepDE19 cells. Kind of test: HepDE19 assay with bDNA quantitation of HBV rcDNA. It counts as cell-based, hepatitis B virus (HBV). The note with it: Hepatitis B virus, HepDE19, 168 h, inhibition of rcDNA formation in HepDE19 cells (HepG2 derived), Tet-free medium, 7 day incubation, Quantigene 2.0 bDNA readout, top concentration 25 μM; read-out: DE-19bDNA EC50. In short, it runs like this:
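HepDE19 cells (HepG2-derived, Tet-regulated HBV) switched to Tet-free medium, then treated 7 days at 37 °C with compound, 8-point titration from 25 μM, 0.5% DMSO. rcDNA quantified by bDNA with HBV probes; EC50/EC90 via 4-parameter fit. Viability (CC50) by CellTiter-Glo ATP on 5,000 cells/well after 4 days.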
Consider `CC(C)CN(C(=O)Nc1ccc(F)c(Cl)c1)C1COCc2[nH]c(=O)c3ccccc3c21` (stereo not shown) [Compound 30, 3-(3-Chloro-4-fluorophenyl)-1-isobutyl-1-(6-oxo-1,4,5,6-tetrahydro-2H-pyrano[3,4-c]isoquinolin-1-yl)urea], for which the EC50 (in general, the concentration that produces a half-maximal response) was 20 nM.
The same measure, in the same setting: under `CN(C(=O)Nc1ccc(F)c(Cl)c1)C1CCCc2c1c1ccccc1c(=O)n2C` (stereo not shown) [Compound 31, 3-(3-Chloro-4-fluorophenyl)-1-methyl-1-(5-methyl-6-oxo-1,2,3,4,5,6-hexahydrophenanthridin-1-yl)urea] stands 260 nM; under `CN(C(=O)Nc1ccc(F)c(F)c1)C1CCCc2[nH]c(=O)c3cc(F)ccc3c21` (stereo not shown) [Compound 32, 3-(3,4-Difluorophenyl)-1-(8-fluoro-6-oxo-1,2,3,4,5,6-hexahydrophenanthridin-1-yl)-1-methylurea], 110 nM; under `CN(C(=O)Nc1cc(F)c(F)c(F)c1)C1CCCc2[nH]c(=O)c3cc(F)ccc3c21` (stereo not shown) [Compound 33, 1-(8-Fluoro-6-oxo-1,2,3,4,5,6-hexahydrophenanthridin-1-yl)-1-methyl-3-(3,4,5-trifluorophenyl)urea], 100 nM.
The same measure, in the same setting: to `COc1nc2c(c3ccccc13)C(N(C)C(=O)Nc1ccc(F)c(Cl)c1)CCC2` (stereo not shown) [Compound 34, 3-(3-Chloro-4-fluorophenyl)-1-(6-methoxy-1,2,3,4-tetrahydrophenanthridin-1-yl)-1-methylurea] belongs 1800 nM; to `CN(C(=O)Nc1ccc(F)c(Cl)c1)C1COCc2[nH]c(=O)c3c(F)c(F)ccc3c21` (stereo not shown) [Compound 35, 3-(3-Chloro-4-fluorophenyl)-1-(7,8-difluoro-6-oxo-1,4,5,6-tetrahydro-2H-pyrano[3,4-c]isoquinolin-1-yl)-1-methylurea], 190 nM.
Same read-out and setting: to `CC(C)CN(C(=O)Nc1ccc(F)c(Cl)c1)C1COCc2[nH]c(=O)c3cc(F)ccc3c21` (stereo not shown) [Compound 43, 3-(3-Chloro-4-fluorophenyl)-1-(8-fluoro-6-oxo-1,4,5,6-tetrahydro-2H-pyrano[3,4-c]isoquinolin-1-yl)-1-isobutylurea] belongs 10 nM; to `CCN(C(=O)Nc1ccc(F)c(Cl)c1)C1COCc2[nH]c(=O)c3cc(F)ccc3c21` (stereo not shown) [Compound 44, 3-(3-Chloro-4-fluorophenyl)-1-ethyl-1-(8-fluoro-6-oxo-1,4,5,6-tetrahydro-2H-pyrano[3,4-c]isoquinolin-1-yl)urea], 10 nM; to `CN(C(=O)Nc1ccc(F)c(Cl)c1)C1COCc2[nH]c(=O)c3cc(Cl)ccc3c21` (stereo not shown) [Compound 55, 3-(3-Chloro-4-fluorophenyl)-1-(8-chloro-6-oxo-1,4,5,6-tetrahydro-2H-pyrano[3,4-c]isoquinolin-1-yl)-1-methylurea], 50 nM.
`CCN(C(=O)Nc1ccc(F)c(Cl)c1)C1COCc2[nH]c(=O)c3cc(Cl)ccc3c21` (stereo not shown) [Compound 56, 3-(3-Chloro-4-fluorophenyl)-1-(8-chloro-6-oxo-1,4,5,6-tetrahydro-2H-pyrano[3,4-c]isoquinolin-1-yl)-1-ethylurea]: the half-maximal effective concentration (EC50) stood at 50 nM.
As for `Cc1cc(NC(=O)N(C)C2COCc3[nH]c(=O)c4cc(F)ccc4c32)ccc1F` (stereo not shown) [Compound 57, 3-(4-Fluoro-3-methylphenyl)-1-(8-fluoro-6-oxo-1,4,5,6-tetrahydro-2H-pyrano[3,4-c]isoquinolin-1-yl)-1-methylurea], the EC50 came out at 10 nM.
In the case of `Cc1cc(NC(=O)N(C)C2COCc3[nH]c(=O)c4cc(Cl)ccc4c32)ccc1F` (stereo not shown) [Compound 58, 1-(8-Chloro-6-oxo-1,4,5,6-tetrahydro-2H-pyrano[3,4-c]isoquinolin-1-yl)-3-(4-fluoro-3-methylphenyl)-1-methylurea], the EC50 came out at 40 nM.
On the same count and under the same terms, under `CCN(C(=O)Nc1ccc(F)c(C)c1)C1COCc2[nH]c(=O)c3cc(Cl)ccc3c21` (stereo not shown) [Compound 59, 1-(8-Chloro-6-oxo-1,4,5,6-tetrahydro-2H-pyrano[3,4-c]isoquinolin-1-yl)-1-ethyl-3-(4-fluoro-3-methylphenyl)urea] stands 20 nM; under `CN(C(=O)Nc1ccc(F)c(C#N)c1)C1COCc2[nH]c(=O)c3cc(Cl)ccc3c21` (stereo not shown) [Compound 65, 1-(8-Chloro-6-oxo-1,4,5,6-tetrahydro-2H-pyrano[3,4-c]isoquinolin-1-yl)-3-(3-cyano-4-fluorophenyl)-1-methylurea], 80 nM.
For `CCN(C(=O)Nc1ccc(F)c(C#N)c1)C1COCc2[nH]c(=O)c3cc(Cl)ccc3c21` (stereo not shown) [Compound 66, 1-(8-Chloro-6-oxo-1,4,5,6-tetrahydro-2H-pyrano[3,4-c]isoquinolin-1-yl)-3-(3-cyano-4-fluorophenyl)-1-ethylurea], the EC50 was determined as 50 nM.
Regarding `CN(C(=O)Nc1ccc(F)c(Cl)c1)C1COCc2[nH]c(=O)c3ccc(F)cc3c21` (stereo not shown) [Compound 73, 3-(3-Chloro-4-fluorophenyl)-1-(9-fluoro-6-oxo-1,4,5,6-tetrahydro-2H-pyrano[3,4-c]isoquinolin-1-yl)-1-methylurea], the EC50 was determined as 20 nM.
Same read-out and setting: to `CCN(C(=O)Nc1ccc(F)c(Cl)c1)C1COCc2[nH]c(=O)c3ccc(F)cc3c21` (stereo not shown) [Compound 74, 3-(3-Chloro-4-fluorophenyl)-1-ethyl-1-(9-fluoro-6-oxo-1,4,5,6-tetrahydro-2H-pyrano[3,4-c]isoquinolin-1-yl)urea] belongs 20 nM; to `Cc1cc(NC(=O)N(C)C2COCc3[nH]c(=O)c4ccc(F)cc4c32)ccc1F` (stereo not shown) [Compound 75, 3-(4-Fluoro-3-methylphenyl)-1-(9-fluoro-6-oxo-1,4,5,6-tetrahydro-2H-pyrano[3,4-c]isoquinolin-1-yl)-1-methylurea], 20 nM; to `CCN(C(=O)Nc1ccc(F)c(C)c1)C1COCc2[nH]c(=O)c3ccc(F)cc3c21` (stereo not shown) [Compound 76, 1-Ethyl-3-(4-fluoro-3-methylphenyl)-1-(9-fluoro-6-oxo-1,4,5,6-tetrahydro-2H-pyrano[3,4-c]isoquinolin-1-yl)urea], 10 nM.
The same measure, in the same setting: under `CN(C(=O)Nc1ccc(F)c(C#N)c1)C1COCc2[nH]c(=O)c3ccc(F)cc3c21` (stereo not shown) [Compound 77, 3-(3-Cyano-4-fluorophenyl)-1-(9-fluoro-6-oxo-1,4,5,6-tetrahydro-2H-pyrano[3,4-c]isoquinolin-1-yl)-1-methylurea] stands 50 nM; under `CCN(C(=O)Nc1ccc(F)c(C#N)c1)C1COCc2[nH]c(=O)c3ccc(F)cc3c21` (stereo not shown) [Compound 78, 3-(3-Cyano-4-fluorophenyl)-1-ethyl-1-(9-fluoro-6-oxo-1,4,5,6-tetrahydro-2H-pyrano[3,4-c]isoquinolin-1-yl)urea], 40 nM; under `CN(C(=O)Nc1ccc(F)c(Cl)c1)C1CCCc2[nH]c(=O)c3c(c21)COCC3` (stereo not shown) [Compound 80, 3-(3-Chloro-4-fluorophenyl)-1-methyl-1-(5-oxo-3,4,5,6,7,8,9,10-octahydro-1H-pyrano[4,3-c]quinolin-10-yl)urea], 2800 nM.
On the same count and under the same terms, to `CN(C(=O)Nc1ccc(F)c(Cl)c1)C1COCc2[nH]c(=O)c3cc(C#N)ccc3c21` (stereo not shown) [Compound 89, 3-(3-Chloro-4-fluorophenyl)-1-(8-cyano-6-oxo-1,4,5,6-tetrahydro-2H-pyrano[3,4-c]isoquinolin-1-yl)-1-methylurea] belongs 1100 nM; to `CCN(C(=O)Nc1ccc(F)c(Cl)c1)C1COCc2[nH]c(=O)c3cc(C#N)ccc3c21` (stereo not shown) [Compound 90, 3-(3-Chloro-4-fluorophenyl)-1-(8-cyano-6-oxo-1,4,5,6-tetrahydro-2H-pyrano[3,4-c]isoquinolin-1-yl)-1-ethylurea], 360 nM.
As for `CN(C(=O)Nc1ccc(F)c(Cl)c1)C1COCc2[nH]c(=O)c3sccc3c21` (stereo not shown) [Compound 95, 3-(3-Chloro-4-fluorophenyl)-1-methyl-1-(6-oxo-1,4,5,6-tetrahydro-2H-pyrano[3,4-b]thieno[3,2-d]pyridin-1-yl)urea], the EC50 was 30 nM.
On the same count and under the same terms, to `CN(C(=O)Nc1ccc(F)c(Cl)c1)C1COCc2[nH]c(=O)c3ccsc3c21` (stereo not shown) [Compound 96, 3-(3-chloro-4-fluorophenyl)-1-methyl-1-(4-oxo-4,6,8,9-tetrahydro-5H-pyrano[3,4-b]thieno[2,3-d]pyridin-9-yl)urea] belongs 80 nM; to `CN(C(=O)Nc1ccc(F)c(Cl)c1)C1COCc2[nH]c(=O)c3cscc3c21` (stereo not shown) [Compound 105, 3-(3-Chloro-4-fluorophenyl)-1-methyl-1-(4-oxo-4,5,8,9-tetrahydro-6H-pyrano[3,4-b]thieno[3,4-d]pyridin-9-yl)urea], 20 nM.
The same measure, in the same setting: under `CN(C(=O)Nc1ccc(F)c(C(F)F)c1)C1COCc2[nH]c(=O)c3cc(F)ccc3c21` (stereo not shown) [Compound 124, 3-(3-(Difluoromethyl)-4-fluorophenyl)-1-(8-fluoro-6-oxo-1,4,5,6-tetrahydro-2H-pyrano[3,4-c]isoquinolin-1-yl)-1-methylurea] stands 10 nM; under `CN(C(=O)Nc1ccc(Cl)c(F)c1)[C@@H]1COCc2[nH]c(=O)c3cc(F)c(F)cc3c21` [Compound 141, (S)-3-(4-Chloro-3-fluorophenyl)-1-(8,9-difluoro-6-oxo-1,4,5,6-tetrahydro-2H-pyrano[3,4-c]isoquinolin-1-yl)-1-methylurea], 20 nM.

The same test, now with this note: inhibition of rcDNA formation in HepDE19 cells (HepG2 derived), Tet-free medium, 7 day incubation, Quantigene 2.0 bDNA readout, top concentration 25 μM; read-out: DE-19bDNA EC50.
For `CN(C(=O)Nc1ccc(F)c(Cl)c1)C1CCCc2[nH]c(=O)c3cc(F)c(F)cc3c21` (stereo not shown) [Compound 38, 3-(3-Chloro-4-fluorophenyl)-1-(8,9-difluoro-6-oxo-1,2,3,4,5,6-hexahydrophenanthridin-1-yl)-1-methylurea], the concentration giving a half-maximal response (EC50) came out at 1000 nM.
Same read-out and setting: under `CN(C(=O)Nc1ccc(F)c(Cl)c1)C1CCCc2[nH]c(=O)c3cc(F)c(F)cc3c21` (stereo not shown) [Compound 39, 3-(3-Chloro-4-fluorophenyl)-1-(8,9-difluoro-6-oxo-1,2,3,4,5,6-hexahydrophenanthridin-1-yl)-1-methylurea] stands 10 nM.
